PubChem BioAssay AID330 (DTP/NCI, 2004)
Where “and” joins values, the source holds several entries; their conditions need not be identical. Equal entries are not always repeated. Toxic doses and inconclusive results are not listed. The calls were made as follows: active = survival T/C of 150% or more; inactive = T/C below 125% in these data.

System: P388 leukemia ip, CD2F1 mice, survival T/C
Assay: NCI In Vivo Anticancer Drug Screen. Data for tumor model P388 Leukemia (intraperitoneal) in CD2F1 (CDF1) mice
Conditions: endpoint: median survival time, higher = longer survival
In short: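 Mice carrying the transplanted tumor received test compound or vehicle. Survival was recorded in each group, and the value is the treated-group measurement divided by that of the vehicle-treated control group.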

[1] = dose: 25.0 mg/kg/injection, schedule: Q01DX009 (ip), vehicle: Klucel (hydroxypropylcellulose) (HPC)
[2] = dose: 50.0 mg/kg/injection, schedule: Q01DX009 (ip), vehicle: Klucel (hydroxypropylcellulose) (HPC)
[3] = dose: 100.0 mg/kg/injection, schedule: Q01DX009 (ip), vehicle: Klucel (hydroxypropylcellulose) (HPC)
[4] = dose: 100.0 mg/kg/injection, schedule: Q04DX003 (ip), vehicle: saline with Tween-80
[5] = dose: 200.0 mg/kg/injection, schedule: Q04DX003 (ip), vehicle: saline with Tween-80
[6] = dose: 400.0 mg/kg/injection, schedule: Q04DX003 (ip), vehicle: saline with Tween-80
[7] = dose: 50.0 mg/kg/injection, schedule: Q01DX005 (ip), vehicle: saline with Tween-80
[8] = dose: 100.0 mg/kg/injection, schedule: Q01DX005 (ip), vehicle: saline with Tween-80
[9] = dose: 200.0 mg/kg/injection, schedule: Q01DX005 (ip), vehicle: saline with Tween-80
[10] = dose: 25.0 mg/kg/injection, schedule: Q04DX002 (ip), vehicle: saline with Tween-80
[11] = dose: 50.0 mg/kg/injection, schedule: Q04DX002 (ip), vehicle: saline with Tween-80
[12] = dose: 60.0 mg/kg/injection, schedule: Q01DX005 (ip), vehicle: saline with Tween-80
[13] = dose: 120.0 mg/kg/injection, schedule: Q01DX005 (ip), vehicle: saline with Tween-80
[14] = dose: 240.0 mg/kg/injection, schedule: Q01DX005 (ip), vehicle: saline with Tween-80
[15] = dose: 60.0 mg/kg/injection, schedule: Q01DX005 (ip), vehicle: Klucel (hydroxypropylcellulose) (HPC)
[16] = dose: 120.0 mg/kg/injection, schedule: Q01DX005 (ip), vehicle: Klucel (hydroxypropylcellulose) (HPC)
[17] = dose: 240.0 mg/kg/injection, schedule: Q01DX005 (ip), vehicle: Klucel (hydroxypropylcellulose) (HPC)
[18] = dose: 50.0 mg/kg/injection, schedule: Q01DX009 (ip), vehicle: saline with Tween-80
[19] = dose: 100.0 mg/kg/injection, schedule: Q01DX009 (ip), vehicle: saline with Tween-80
[20] = dose: 200.0 mg/kg/injection, schedule: Q01DX009 (ip), vehicle: saline with Tween-80
[21] = dose: 50.0 mg/kg/injection, schedule: Q01DX005 (ip), vehicle: Klucel (hydroxypropylcellulose) (HPC)
[22] = dose: 100.0 mg/kg/injection, schedule: Q01DX005 (ip), vehicle: Klucel (hydroxypropylcellulose) (HPC)
[23] = dose: 200.0 mg/kg/injection, schedule: Q01DX005 (ip), vehicle: Klucel (hydroxypropylcellulose) (HPC)

Measured: T/C

C=C(C)C1CC2=C(C(=O)OC)C=C(O2)C(C(=C)C)C2C=C(C(=O)O2)C2OC12 (stereo unspecified)
inactive: dose: 12.5 mg/kg/injection, schedule: Q01DX005 (ip), vehicle: saline + alcohol 99 % of control | dose: 25.0 mg/kg/injection, schedule: Q01DX005 (ip), vehicle: saline + alcohol 103 % of control | dose: 50.0 mg/kg/injection, schedule: Q01DX005 (ip), vehicle: saline + alcohol 97 % of control | dose: 100.0 mg/kg/injection, schedule: Q01DX005 (ip), vehicle: saline + alcohol 108 % of control

OC(CNC1CC2CCC1C2)COc1cccc2ccccc12 (stereo unspecified)
inactive: [1] 107 % of control | [2] 107 % of control | [3] 110 % of control

O=S1(=O)CC2(N3CCOCC3)CCCCC21 (stereo unspecified)
inactive: [4] 95 % of control | [5] 100 % of control | [6] 95 % of control

C=CC1CC(NC(=O)OC)C(=O)O1 (stereo unspecified)
inactive: [7] 104 % of control | [8] 104 % of control | [9] 99 % of control

CC(C)(/C=N/O)N1CC=CCC1
inactive: dose: 12.5 mg/kg/injection, schedule: Q04DX002 (ip), vehicle: saline with Tween-80 101 % of control | [10] 100 % of control | [11] 97 % of control

NC(N)=NC(=O)COc1ccc(Cl)cc1Cl
inactive: [12] 97 % of control | [13] 103 % of control | [14] 114 % of control

COC(=O)C1(C(=O)Nc2ccccc2)N=N1
inactive: [15] 108 % of control | [16] 100 % of control | [17] 103 % of control

[Cl][Pt+2][Cl].[NH-]c1cccc(C(F)(F)F)c1.[NH-]c1cccc(C(F)(F)F)c1
inactive: dose: 3.12 mg/kg/injection, schedule: Q01DX009 (ip), vehicle: Klucel (hydroxypropylcellulose) (HPC) 103 % of control and 111 % of control | dose: 6.25 mg/kg/injection, schedule: Q01DX009 (ip), vehicle: Klucel (hydroxypropylcellulose) (HPC) 97 % of control | dose: 12.5 mg/kg/injection, schedule: Q01DX009 (ip), vehicle: Klucel (hydroxypropylcellulose) (HPC) 111 % of control | [1] 106 % of control

N#CC(C(=O)CCC(=O)C(C#N)c1nc2ccccc2s1)c1nc2ccccc2s1 (stereo unspecified)
inactive: dose: 100.0 mg/kg/injection, schedule: Q01DX001 (ip), vehicle: saline with Tween-80 89 % of control | dose: 200.0 mg/kg/injection, schedule: Q01DX001 (ip), vehicle: saline with Tween-80 88 % of control | dose: 400.0 mg/kg/injection, schedule: Q01DX001 (ip), vehicle: saline with Tween-80 91 % of control

CC1(C)CC(=O)C(C(c2cccc(O)c2O)C2C(=O)CC(C)(C)CC2=O)C(=O)C1
inactive: dose: 12.5 mg/kg/injection, schedule: Q01DX009 (ip), vehicle: saline with Tween-80 100 % of control and 96 % of control | dose: 25.0 mg/kg/injection, schedule: Q01DX009 (ip), vehicle: saline with Tween-80 92 % of control | [18] 93 % of control and 96 % of control | [19] 92 % of control and 94 % of control

CC(C)=CO[Si](C)(C)C
inactive: dose: 50.0 mg/kg/injection, schedule: Q01DX009 (ip), vehicle: olive oil, sesame oil, peanut oil 99 % of control | dose: 100.0 mg/kg/injection, schedule: Q01DX009 (ip), vehicle: olive oil, sesame oil, peanut oil 99 % of control | dose: 200.0 mg/kg/injection, schedule: Q01DX009 (ip), vehicle: olive oil, sesame oil, peanut oil 114 % of control

COC1(Cl)CC1C#N (stereo unspecified)
inactive: [18] 117 % of control | [19] 96 % of control | [20] 105 % of control

Cn1cnc2cc3c(cc2c1=O)nc1n3CCOC1
inactive: dose: 100.0 mg/kg/injection, schedule: Q04DX003 (ip), vehicle: Klucel (hydroxypropylcellulose) (HPC) 103 % of control | dose: 200.0 mg/kg/injection, schedule: Q04DX003 (ip), vehicle: Klucel (hydroxypropylcellulose) (HPC) 100 % of control | dose: 400.0 mg/kg/injection, schedule: Q04DX003 (ip), vehicle: Klucel (hydroxypropylcellulose) (HPC) 93 % of control

CCN1CC2(C)CCC(O)C34C2C(OC)C(O)(C13)C1(O)CC(OC)C2CC4(O)C1C2OC(=O)c1ccccc1 (stereo unspecified)
inactive: dose: 1.0 mg/kg/injection, schedule: Q01DX005 (ip), vehicle: saline + alcohol 102 % of control | dose: 2.0 mg/kg/injection, schedule: Q01DX005 (ip), vehicle: saline + alcohol 106 % of control | dose: 4.0 mg/kg/injection, schedule: Q01DX005 (ip), vehicle: saline + alcohol 108 % of control | dose: 8.0 mg/kg/injection, schedule: Q01DX005 (ip), vehicle: saline + alcohol 100 % of control

COc1cc(C2c3cc4c(cc3OC3(O)C=C(C)OC(=O)C23)OCO4)cc(OC)c1OC (stereo unspecified)
inactive: [15] 94 % of control | [16] 94 % of control | [17] 110 % of control

CC(C)C(C(=O)O)N(C)C(=O)c1cnc2ccccc2n1 (stereo unspecified)
inactive: [12] 104 % of control | [13] 97 % of control | [14] 99 % of control

CN(C)C12CCCCCCC1S(=O)(=O)C2 (stereo unspecified)
inactive: [10] 98 % of control | [11] 98 % of control | dose: 100.0 mg/kg/injection, schedule: Q04DX002 (ip), vehicle: saline with Tween-80 102 % of control and 96 % of control

CCOC(=O)C1=C(C)NC(C)=C(C(=O)OCC)C1c1ccccn1
inactive: [2] 99 % of control | [3] 97 % of control | dose: 200.0 mg/kg/injection, schedule: Q01DX009 (ip), vehicle: Klucel (hydroxypropylcellulose) (HPC) 96 % of control

COC(=O)C1(C)C(=O)C=CC2(C)C1CC(O)C1(C)C2C(O)C(O)C2(C)C(c3ccoc3)CC3OC321 (stereo unspecified) (tested in a mixture with another compound)
inactive: dose: 0.75 mg/kg/injection, schedule: Q01DX005 (ip), vehicle: Klucel (hydroxypropylcellulose) (HPC) 102 % of control | dose: 1.5 mg/kg/injection, schedule: Q01DX005 (ip), vehicle: Klucel (hydroxypropylcellulose) (HPC) 96 % of control | dose: 3.0 mg/kg/injection, schedule: Q01DX005 (ip), vehicle: Klucel (hydroxypropylcellulose) (HPC) 96 % of control | dose: 6.0 mg/kg/injection, schedule: Q01DX005 (ip), vehicle: Klucel (hydroxypropylcellulose) (HPC) 99 % of control | dose: 12.0 mg/kg/injection, schedule: Q01DX005 (ip), vehicle: Klucel (hydroxypropylcellulose) (HPC) 103 % of control

CN=C(N)NN=C1c2ccccc2-c2ccccc21
inactive: [10] 97 % of control | [11] 101 % of control

Nc1ccccc1SC1CC(=O)N(c2ccccc2Cl)C1=O (stereo unspecified)
inactive: [18] 90 % of control | [19] 90 % of control and 95 % of control | [4] 90 % of control | [20] 95 % of control | [5] 90 % of control | [6] 95 % of control

COc1ccccc1-n1c(C)nc2[nH]ncc2c1=O
inactive: [21] 101 % of control | [22] 97 % of control | [23] 96 % of control

Clc1ccc2c(NCCC3CCCN4CCCCC34)ccnc2c1 (stereo unspecified)
inactive: dose: 12.5 mg/kg/injection, schedule: Q01DX005 (ip), vehicle: Klucel (hydroxypropylcellulose) (HPC) 100 % of control | dose: 25.0 mg/kg/injection, schedule: Q01DX005 (ip), vehicle: Klucel (hydroxypropylcellulose) (HPC) 103 % of control | [21] 100 % of control and 97 % of control

COc1ccc(C2OC(=O)CN2C(=O)c2ccccc2)cc1 (stereo unspecified)
inactive: [7] 107 % of control | [8] 95 % of control | [9] 90 % of control

C=C(CO)C(=O)OC1CC(=C)C2CC(O)C(=C)C2[C@H]2OC(=O)C(=C)C12 (stereo partly specified)
inactive: dose: 3.75 mg/kg/injection, schedule: Q01DX009 (ip), vehicle: saline 92 % of control | dose: 7.5 mg/kg/injection, schedule: Q01DX009 (ip), vehicle: saline 99 % of control | dose: 15.0 mg/kg/injection, schedule: Q01DX009 (ip), vehicle: saline 108 % of control

COC(=O)CCSC(=S)NCc1ccccc1
inactive: [21] 98 % of control | [22] 96 % of control | [23] 102 % of control
